# Measurements as given in the supplement of paper PMC12420376.
# What was measured:
# KURAMOCHI = assay: drug sensitivity score (DSS2) on cancer cell count; higher = more sensitive; extreme values may be limits of the assay; details: 72 h
# Summary of the method: (§1)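 Ovarian cancer cells grown alone or 1:1 with lung or skin fibroblasts in direct co-culture were treated for 72 h on 384-well plates carrying 528 approved and investigational compounds at 5 concentrations. Fixed cells were stained for CK8/18 with Hoechst and imaged to count cancer cells. A drug sensitivity score was then derived in Breeze from logistic curve fits.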
# OVCAR8 = assay: as above; details: 72 h
# Summary of the method: as §1
# [1] = co-cultured fibroblast: BJHTERT
# [2] = co-cultured fibroblast: none (monoculture)
Structure (SMILES),drug sensitivity score (KURAMOCHI; [1]) [DSS],drug sensitivity score (KURAMOCHI; co-cultured fibroblast: WI38) [DSS],drug sensitivity score (KURAMOCHI; [2]) [DSS],drug sensitivity score (OVCAR8; [1]) [DSS],drug sensitivity score (OVCAR8; co-cultured fibroblast: WI38) [DSS],drug sensitivity score (OVCAR8; [2]) [DSS]
FC(F)(F)c1ccc(CNc2ccc(Cc3c[nH]c4ncc(Cl)cc34)cn2)cn1 [Pexidartinib],0,1.4,12.1,0,0.1,0.7
COc1cc2c(cc1OCCCN1CCCC1)N=C(N)C21CCC1 [A-366],2.1,0.5,0,4.1,0,0.3
COc1cc(OC)cc(N(CCNC(C)C)c2ccc3ncc(-c4cnn(C)c4)nc3c2)c1 [Erdafitinib],0,0,0,0,0,0
CCCCCOC(=O)Nc1nc(=O)n([C@@H]2O[C@H](C)[C@@H](O)[C@H]2O)cc1F [Capecitabine],3.3,0,0,0,2.7,1.2
Cn1cc(CNCC2CCN(c3ncc(C(=O)NO)cn3)CC2)c2ccccc21 [Quisinostat],15,17,18.9,22.6,15.3,22.4
CCN(CC)CCOc1ccc(C(=C(Cl)c2ccccc2)c2ccccc2)cc1 [Clomifene],3.7,5.6,7.9,4.3,10.1,1.9
C[C@@H]1CN(Cc2ccc(F)cc2)[C@@H](C)CN1C(=O)c1cc2c(C(=O)C(=O)N(C)C)cn(C)c2cc1Cl [Talmapimod],1.2,0,0,2.8,0,1.4
C=C1C[C@@H]2[C@H](CC[C@]3(C)C(=O)CC[C@@H]23)[C@@]2(C)C=CC(=O)C=C12 [Exemestane],0,0,0,1.3,0,0
C#Cc1cccc(Nc2ncnc3cc4c(cc23)OCCOCCOCCO4)c1 [Icotinib],0,0.2,9.7,0.1,0,0
CCS(=O)(=O)c1cccc(-c2cc(C(=O)NC3CCN(C)CC3)c(C)c3[nH]c4ncc(C)cc4c23)c1 [TAK-901],11.8,15,13.7,9.4,8.3,7.1
COc1ccc(COc2cc3oc(=O)c4cc(C(C)O)ccc4c3cc2OC)cc1 (centres undefined) [Palomid-529],0,0,0,1.1,1,0
NCC(=O)Nc1ccc(-n2nc(C(F)(F)F)cc2-c2ccc3c(ccc4ccccc43)c2)cc1,2.6,4.1,8,0,0,9.7
Cc1ccc(-n2nc(C(C)(C)C)cc2NC(=O)Nc2ccc(OCCN3CCOCC3)c3ccccc23)cc1 [Doramapimod],4.2,3.4,2.8,4.4,0.1,1.4
CCN(CC)CCNC(=O)c1c(C)[nH]c(/C=C2\C(=O)Nc3ccc(F)cc32)c1C [Sunitinib],0,0,3.2,0.7,0,0
CC[C@H](C)C(=O)O[C@H]1C[C@@H](C)C=C2C=C[C@H](C)[C@H](CC[C@@H]3C[C@@H](O)CC(=O)O3)[C@H]21 [Lovastatin],0.3,3.4,5.4,1.7,8.4,2.1
NC(=O)c1cccc2cn(-c3ccc([C@@H]4CCCNC4)cc3)nc12 [Niraparib],5.8,6.8,5.1,14.9,8.1,9
CC(=O)[C@]1(O)Cc2c(O)c3c(c(O)c2[C@@H](O[C@H]2C[C@H](N)[C@H](O)[C@H](C)O2)C1)C(=O)c1ccccc1C3=O [Idarubicin],14.5,14.4,27.8,17.6,19.3,22.1
COc1cccc2c1C(=O)c1c(O)c3c(c(O)c1C2=O)C[C@@](O)(C(=O)CO)C[C@@H]3O[C@H]1C[C@H](N)[C@@H](O)[C@H](C)O1 [Epirubicin],12.2,12.7,19.2,14.7,9,12.3
Cc1sc2c(c1C)C(c1ccc(Cl)cc1)=N[C@@H](CC(=O)Nc1ccc(O)cc1)c1nnc(C)n1-2 [Birabresib],10.7,13,8.2,19.5,8.7,15.6
CONC(=O)c1ccccc1Nc1cc(Nc2cc(C)nn2C(C)C)ncc1Cl,3.3,0,0.2,0.8,4.2,0
C=CCn1c(=O)c2cnc(Nc3ccc(N4CCN(C)CC4)cc3)nc2n1-c1cccc(C(C)(C)O)n1 [AZD1775],15.3,12.7,13.2,21,14.9,18.4
Cc1ccc(C(=O)Nc2ccc(CN3CCN(C)CC3)c(C(F)(F)F)c2)cc1C#Cc1cnc2cccnn12 [Ponatinib],8.3,6.3,21.9,3.5,6.5,3.1
COC(=O)c1ccc([C@H]2c3[nH]c4ccccc4c3C[C@H](C(=O)OC)N2C(=O)CCl)cc1 [RSL3],0,0,2.5,0,0,0
CN1CCN(CCOc2cc(OC3CCOCC3)c3c(Nc4c(Cl)ccc5c4OCO5)ncnc3c2)CC1 [Saracatinib],10.4,9.6,9.9,9.2,13.3,14.6
C[C@@H]1COC(Nc2ccc3ncnc(Nc4ccc(OCc5nccs5)c(Cl)c4)c3c2)=N1 [Varlitinib],1.5,2.1,0,0,2,1.4

Structure (SMILES),drug sensitivity score (KURAMOCHI; [1]) [DSS],drug sensitivity score (KURAMOCHI; co-cultured fibroblast: WI38) [DSS],drug sensitivity score (KURAMOCHI; [2]) [DSS],drug sensitivity score (OVCAR8; [1]) [DSS],drug sensitivity score (OVCAR8; co-cultured fibroblast: WI38) [DSS],drug sensitivity score (OVCAR8; [2]) [DSS]
Nc1ncnc2c1nc(Cl)n2[C@@H]1O[C@H](CO)[C@@H](O)[C@H]1O [8-chloro-adenosine],10.1,10.4,10.3,12.9,9.9,16.9
CC(C)(C)Cn1c(N)nc2ccc(-c3[nH]c(C(C)(C)C)nc3-c3ccc(F)cc3)nc21 [Ralimetinib],10.8,1.7,0,0,0,2.5
CNC(=O)c1ccccc1Nc1nc(Nc2ccc3c(c2OC)CCC[C@H](N2CCN(CCO)CC2)C3)ncc1Cl,6.7,2.2,9.5,7.3,2.2,11.1
O=C(O)c1ccc(-c2c[nH]c3ncc(-c4ccccc4)cc23)cc1C1CCCC1,6.8,7.3,7.1,2,4.8,8.1
CC(C)Oc1ccc(C(=O)N[C@H](CNC(=O)CN(C)C)Cc2ccc(-c3cn4cccc([C@H](C)O)c4n3)cc2)cc1Cl,18.1,22.6,22.8,18.3,14.2,16.6
CC(C)[C@H]1C(=O)N[C@@H](CCCNC(=N)N)C(=O)NCC(=O)N[C@@H](CC(=O)O)C(=O)N[C@H](Cc2ccccc2)C(=O)N1C [Cilengitide],5.8,3.3,7.4,9.6,16.3,13.2
C=CC(=O)N1CCC[C@@H](n2nc(-c3ccc(Oc4ccccc4)cc3)c3c(N)ncnc32)C1 [Ibrutinib],3.1,3,0,1.1,0,0
Cc1cc([C@@H](C)Nc2ccccc2C(=O)O)c2nc(N3CCOCC3)cc(=O)n2c1 [AZD-6482],6.1,1.5,4.4,1.2,0,0
C[C@H]1Oc2cc(cnc2N)-c2c(nn(C)c2C#N)CN(C)C(=O)c2ccc(F)cc21,0.7,0,0,0.4,8.7,5.7
CC[C@H](NC(=O)[C@H](C)NC)C(=O)N1C[C@@H](O)C[C@H]1Cc1c(-c2[nH]c3cc(F)ccc3c2C[C@@H]2C[C@H](O)CN2C(=O)[C@H](CC)NC(=O)[C@H](C)NC)[nH]c2cc(F)ccc12 [Birinapant],3.3,0,3.7,15.9,12.9,5.4
Cc1c(N)nc([C@H](CC(N)=O)NC[C@H](N)C(N)=O)nc1C(=O)N[C@H](C(=O)N[C@H](C)[C@@H](O)[C@H](C)C(=O)N[C@H](C(=O)NCCc1nc(-c2nc(C(=O)NCCC[S+](C)C)cs2)cs1)[C@@H](C)O)[C@@H](OC1OC(CO)C(O)C(O)C1OC1OC(CO)C(O)C(OC(N)=O)C1O)c1cnc[nH]1 (some centres undefined) [Bleomycin],13.5,15.4,18.8,12.1,11.5,14.5
C[C@]1(c2nc3c(C(N)=O)cccc3[nH]2)CCCN1 [Veliparib],0.4,0,0,5,3.1,0.5
CCC(C)n1ncn(-c2ccc(N3CCN(c4ccc(OCC5COC(Cn6cncn6)(c6ccc(Cl)cc6Cl)O5)cc4)CC3)cc2)c1=O (centres undefined) [Itraconazole],0,0,0,1,11.5,0.1
Cc1cc(C)c(CNC(=O)c2cc(-c3ccc(CN4CCOCC4)cc3)cc3c2cnn3C2CCCC2)c(=O)[nH]1 [EPZ-5687],0,0,0,0,0,2.7
CCCCCCCCCCCCCCCCCCOP(=O)([O-])OC1CC[N+](C)(C)CC1 [Perifosine],0,0,0,0,0,0
COc1ccc(-c2ccc3c(N4CCOC[C@@H]4C)nc(N4CCOC[C@@H]4C)nc3n2)cc1CO [AZD8055],21.3,18.1,19,17.9,11.4,21
O=C(Nc1c[nH]nc1-c1nc2ccc(CN3CCOCC3)cc2[nH]1)NC1CC1 [AT9283],15.8,16,19.6,10.7,14.2,9
c1cn2cc(-c3ccc4cn[nH]c4c3)nc(Nc3ccc(N4CCOCC4)cc3)c2n1 [Entospletinib],0,1.4,0,1.2,0,0
CC(=O)c1c(C)c2cnc(Nc3ccc(N4CCNCC4)cn3)nc2n(C2CCCC2)c1=O [Palbociclib],6.2,7.5,13.9,6.6,0.3,3.9
Cn1cncc1[C@@](N)(c1ccc(Cl)cc1)c1ccc2c(c1)c(-c1cccc(Cl)c1)cc(=O)n2C [Tipifarnib],14.9,18.3,12.9,5.5,2.5,12.5
CC[C@]1(O)C[C@H]2CN(CCc3c([nH]c4ccccc34)[C@@](C(=O)OC)(c3cc4c(cc3OC)N(C=O)[C@H]3[C@@](O)(C(=O)OC)[C@H](OC(C)=O)[C@]5(CC)C=CCN6CC[C@]43[C@@H]65)C2)C1 [Vincristine],7.5,5,23.4,11.5,9.3,11.9
CCCCCCCCCCCCCCCCOP(=O)([O-])OCC[N+](C)(C)C [Miltefosine],4.4,7.4,5,8.4,7.3,5.7
COc1cc2c(Oc3ccc(NC(=O)C4(C(=O)Nc5ccc(F)cc5)CC4)cc3F)ccnc2cc1OCCCN1CCOCC1 [Foretinib],2.7,4.3,1.7,5.7,5.6,6.1
O=c1ncn2nc(Sc3ccc(F)cc3F)ccc2c1-c1c(Cl)cccc1Cl [Neflamapimod],9.1,0.7,14.9,0,0,0.3
